Source: patent publication US20060003950A1, “Method of treating prostatic diseases using a combination of vitamin D analogues and other agents” (priority 2004, published 2006)
One block for each molecule: values may come before it.

Tests used:
[1] = system: LNCaP; assay: Inhibition of prostate cell proliferation (DNA amount), LNCaP; assay type: cell-based, human; conditions: 10^−11 M to 10^−7 M, 6-7 days
Method: (§1) The cell lines, LNCaP and PC-3, which are derived from human prostate adenocarcinoma, are seeded in six-well tissue culture plates at a density of about 50,000 cells/plate. After the cells have attached and stabilized, about 2-3 days, the medium is replenished with medium containing vehicle or the active vitamin D analogue 1α,24-(OH)2D2, at concentrations from 10^−11 M to 10^−7 M. Medium containing test analogue or vehicle is replaced every three days. After 6-7 days, the medium is removed, the cells are rinsed, precipitated with cold 5% trichloroacetic acid, and washed with cold ethanol. The cells are solubilized with 0.2 N sodium hydroxide, and the amount of DNA determined by standard procedures.

[2] = target: T1, prostate VDR (Homo sapiens, UniProt P11473); assay: VDR binding in soluble extract of prostate-derived cell lines, competition with 3H-1α,25-(OH)2D3; conditions: 0.01-100 nM against 1 nM 3H-1α,25-(OH)2D3, 16-20 hr at 4° C.
T1 construct: endogenous in cells
T1 sequence (P11473 1-427): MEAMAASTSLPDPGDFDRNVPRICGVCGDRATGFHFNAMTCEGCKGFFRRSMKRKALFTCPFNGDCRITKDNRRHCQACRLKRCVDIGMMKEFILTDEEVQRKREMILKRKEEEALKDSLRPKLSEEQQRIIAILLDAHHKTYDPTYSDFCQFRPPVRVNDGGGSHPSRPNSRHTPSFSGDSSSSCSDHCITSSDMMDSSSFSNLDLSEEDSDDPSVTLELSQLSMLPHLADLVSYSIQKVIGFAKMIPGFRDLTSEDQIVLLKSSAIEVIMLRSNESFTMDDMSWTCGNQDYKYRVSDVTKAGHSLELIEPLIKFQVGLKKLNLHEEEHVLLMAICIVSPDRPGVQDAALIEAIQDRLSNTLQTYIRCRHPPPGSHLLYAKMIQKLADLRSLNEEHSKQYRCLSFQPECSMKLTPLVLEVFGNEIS
Method: Prostate-derived cell lines are cultured to near confluence, washed and harvested by scraping. Cells are washed by centrifugation, and the cell pellet resuspended in a buffered salt solution containing protease inhibitors. The cells are disrupted by sonication while cooling on ice. The supernatant obtained from centrifuging the disrupted cells at 207,000×g for 35 min at 4° C. is assayed for binding. […] Bound and free hormones are separated with hydroxylapatite using standard procedures. Specific binding is calculated by subtracting nonspecific binding obtained in the presence of a 250-fold excess of nonradioactive 1α,25-(OH)2D3 from the total binding measured.

[3] = system: PC-3; assay: Inhibition of prostate cell proliferation (DNA amount), PC-3; assay type: cell-based, human; conditions: PC-3, 10^−11 M to 10^−7 M, 6-7 days
Method: as §1

[4] = system: LNCaP; assay: Stimulation of prostate cell differentiation (PSA), LNCaP; assay type: cell-based, human; conditions: 10^−11 M to 10^−7 M, 6-7 days
Method: Using the techniques of Skowronski et al., 132 Endocrinology (1993) 1952-1960 and 136 Endocrinology (1995) 20-26, both of which are incorporated herein by reference, cells of the cell line, LNCaP, which is derived from a human metastatic prostate adenocarcinoma and known to express PSA, are seeded in six-well tissue culture plates at a density of about 50,000 cells/plate. After the cells have attached and stabilized, about 2-3 days, the medium is replenished with medium containing vehicle or the active vitamin D analogue, 1α,24-(OH)2D2, at concentrations from 10^−11 M to 10^−7 M. After 6-7 days, the medium is removed and stored at −20° C. for prostate specific antigen (PSA) analysis.
The cells from parallel cultures are rinsed, precipitated, and the amount of DNA determined by standard procedures. PSA is measured by standard known methods.

[5] = system: Patients with advanced androgen-independent prostate cancer; assay: Open-labeled clinical study of oral 1α,24-(OH)2D2; assay type: in vivo; conditions: daily oral, first phase
From the text: On admission to the study, patients begin a course of therapy with oral 1α,24-(OH)2D2 lasting 26 weeks, while discontinuing any previous use of calcium supplements, vitamin D supplements, and vitamin D hormone replacement therapies. During treatment, the patients are monitored at regular intervals for: (1) hypercalcemia, hyperphosphatemia, hypercalciuria, hyperphosphaturia and other toxicity; (2) evidence of changes in the progression of metastatic disease; and (3) compliance with the prescribed test drug dosage.
The study is conducted in two phases. During the first phase, the maximal tolerated dosage (MTD) of daily oral 1α,24-(OH)2D2 is determined by administering progressively higher dosages to successive groups of patients. All doses are administered in the morning before breakfast. […] Subsequent groups of patients are treated with 50.0, 75.0 and 100.0 μg/day.
During the second phase, patients are treated with 1α,24-(OH)2D2 for 24 months at 0.5 and 1.0 times the MTD.

[6] = target: T2, vitamin D receptor (VDR) (Homo sapiens, UniProt P11473); assay: Vitamin D-inducible growth hormone reporter production in transfected COS-1 cells
T2 sequence (P11473 1-427): T1 sequence (P11473 1-427)
Method: Cells in culture were co-transfected into Green monkey kidney, COS-1 cells with these two plasmids. One plasmid contained the gene for Growth Hormone (GH) under the control of the vitamin D responsive element (VDRE) and the other plasmid contained the structural gene for the vitamin D receptor (VDR). These transfected cultures were incubated with 1α,24-(OH)2D2 or 1α,25-(OH)2D3, and the production of growth hormone was measured.

SMILES: C=C1/C(=C\C=C2/CCC[C@]3(C)[C@@H]([C@H](C)/C=C/C(C)(O)C(C)C)CC[C@@H]23)C[C@H](O)C[C@H]1O (stereo partly drawn) [1α,24-(OH)2D2, 1α,24-dihydroxyvitamin D2]
- cell number versus control cultures [1]: significantly fewer cells than the control cultures
- affinity for prostate VDR [2]: strong affinity
- cell number versus control cultures [3]: significantly fewer cells than the control cultures
- PSA versus control cultures, mass of PSA/cell [4]: significantly more PSA than control cultures
- MTD relative to level achievable with 1α,25-(OH)2D3 [5]: 10- to 40 fold
- maximal tolerated dosage (MTD) [5]: above 20.0 μg/day

- Total GH Production* ([6]; Molar Concentration 5 × 10^−8): 1182 ng/mL
- Total GH Production* ([6]; Molar Concentration 5 × 10^−9): 1350 ng/mL
- Total GH Production* ([6]; Molar Concentration 5 × 10^−10): 425 ng/mL
SMILES: C=C1/C(=C\C=C2/CCC[C@]3(C)[C@@H]([C@H](C)/C=C/[C@@](C)(O)C(C)C)CC[C@@H]23)C[C@@H](O)C[C@@H]1O [1α,24(S)—(OH)2D2, 1α,24(S)-dihydroxyvitamin D2]

- Total GH Production* ([6]; Molar Concentration 1 × 10^−7): 1300 ng/mL
- Total GH Production* ([6]; Molar Concentration 1 × 10^−8): 1100 ng/mL
- Total GH Production* ([6]; Molar Concentration 1 × 10^−9): 80 ng/mL
SMILES: C=C1/C(=C\C=C2/CCC[C@]3(C)[C@@H]([C@H](C)/C=C/[C@](C)(O)C(C)C)CC[C@@H]23)C[C@@H](O)C[C@@H]1O [1α,24(R)—(OH)2D2, 1α,24(R)-dihydroxy-vitamin D2]

SMILES: C=C1CC[C@H](O)C/C1=C/C=C1\CCC[C@]2(C)[C@@H]([C@H](C)CCCC(C)(C)O)CC[C@@H]12 [25-OH-D3, reference compound]
- Total GH Production* ([6]; Molar Concentration 1 × 10^−5): 775 ng/mL
- Total GH Production* ([6]; Molar Concentration 1 × 10^−6): 1100 ng/mL
- Total GH Production* ([6]; Molar Concentration 1 × 10^−7): 245 ng/mL
